Laboratory results from patent publication US20020173662A1, “Parasiticidal pyrazoles” (priority 1998, published 2002).

Tests used:
[1] = tested on: adult Stomoxys calcitrans; assay: Test for insecticidal activity: topical application to adult flies, mortality at 24 hours; type: in vivo; settings: acetone solution (1 μl) applied to thorax, mortality assessed 24 hours after dosing
Experimental: Test for Insecticidal Activity Adult flies (Stomoxys calcitrans) are collected and anaesthetized using CO2. An acetone solution (1 μl) containing the test compound is applied directly to the thorax of each fly and then the flies are placed carefully into a 50 ml tube covered with damp gauze to recover from the CO2. Negative controls have acetone (1 μl) dispensed onto them. Mortality is assessed 24 hours after dosing. Table 1 illustrates the in vivo activity of a selection of the compounds of the invention against adult Stomoxys calcitrans. Dosages required to produce 100% mortality are given in the final column as μg/fly.

[2] = tested on: Boophilus microplus larvae; assay: Test for acaricidal activity: treated filter paper envelope, larval mortality; settings: larvae in treated filter paper envelope; 25° C.; mortality assessed after 48 hours
Experimental: Test for Acaricidal Activity
A dose of 10 μg/cm^2 is created by evenly pipetting 0.5 ml of a 1 mg/ml solution of the test compound in a suitable solvent such as acetone or ethanol onto a Whatman No. 1 (Trade Mark) filter paper cut to a size of 8×6.25 cm. When dry, the paper is folded in half, sealed on two sides using a crimping device and placed in a Kilner jar containing a cotton wool pad dampened with water. The jar is then sealed and placed at 25° C. for 24 hours. Next, approximately 50 Boophilus microplus larvae are introduced into the treated paper envelope which is then crimped along the third side to effect a complete seal. The paper envelope is returned to the Kilner jar, which is sealed and placed at 25° C. for a further 48 hours. The papers are then removed and mortality assessed. Negative controls are provided by treating an appropriately cut filter paper with 0.5 ml of solvent only and following the same procedure. Activity at other doses is obtained by varying the concentration of the test solution.
Table 2 illustrates the in vitro activity of a selection of the compounds of the invention against Boophilus microplus larvae. Dosages required to produce 100% mortality are given in the final column as μg/cm^2.

SMILES	melting point	Dosage required to produce 100% mortality [1]	Dosage required to produce 100% mortality [2]
C=C(C)c1nn(-c2c(Cl)cc(C(F)(F)F)cc2Cl)cc1C1CC1(Br)Br (stereo not shown) [Example 1, 4-(2,2-Dibromocyclopropyl)-1-(2,6-dichloro-4-trifluoromethylphenyl)-3-(propen-2-yl)pyrazole]	86.5 to 88.2 °C	–	–
C=Cc1nn(-c2c(Cl)cc(C(F)(F)F)cc2Cl)cc1C1CC1(Br)Br (stereo not shown) [Example 4, 4-(2,2-Dibromocyclopropyl)-1-(2,6-dichloro-4-trifluoromethylphenyl)-3-ethenylpyrazole]	–	0.10 μG/FLY	–
FC(F)=Cc1nn(-c2c(Cl)cc(C(F)(F)F)cc2Cl)cc1C1CC1(Br)Br (stereo not shown) [Example 5, 4-(2,2-Dibromocyclopropyl)-1-(2,6-dichloro-4-trifluoromethylphenyl)-3-(2,2-difluoroethenyl)pyrazole]	–	0.10 μG/FLY	–
FC(F)(F)c1cc(Cl)c(-n2cc(C3CC3(Br)Br)c(C=C(Br)Br)n2)c(Cl)c1 (stereo not shown) [Example 6, 4-(2,2-Dibromocyclopropyl)-3-(2,2-dibromoethenyl)-1-(2,6-dichloro-4-trifluoromethylphenyl)pyrazole]	106 to 107 °C	–	–
NC(=O)c1nn(-c2c(Cl)cc(C(F)(F)F)cc2Cl)cc1C1CC1(Br)Br (stereo not shown) [Example 7, 3-Carbamoyl-4-(2,2-dibromocyclopropyl)-1-(2,6-dichloro-4-trifluoromethylphenyl)pyrazole]	186.2 to 187.3 °C	–	–
Nc1nn(-c2c(Cl)cc(C(F)(F)F)cc2Cl)cc1C1CC1(Br)Br (stereo not shown) [Example 8, 3-Amino-4-(2,2-dibromocyclopropyl)-1-(2,6-dichloro-4-trifluoromethylphenyl)pyrazole]	124.9 to 126 °C	–	–
FC(F)(F)c1cc(Cl)c(-n2cc(C3CC3(Br)Br)cn2)c(Cl)c1 (stereo not shown) [Example 9, 4-(2,2-Dibromocyclopropyl)-1-(2,6-dichloro-4-trifluoromethylphenyl)pyrazole]	–	0.05 μG/FLY	–
FC(F)(F)c1cc(Cl)c(-n2cc(C3CC3(Br)Br)c(Cl)n2)c(Cl)c1 (stereo not shown) [Example 10, 3-Chloro-4-(2,2-dibromocyclopropyl)-1-(2,6-dichloro-4-trifluoromethylphenyl)pyrazole]	–	–	1.00 μg/cm^2
FC(F)(F)c1cc(Cl)c(-n2cc(C3CC3(Br)Br)c(Br)n2)c(Cl)c1 (stereo not shown) [Example 11, 3-Bromo4-(2,2-dibromocyclopropyl)-1-(2,6-dichloro-4-trifluoromethylphenyl)pyrazole]	–	0.05 μG/FLY	1.00 μg/cm^2
